According to patent US20250186541A1, “DLL3 TARGETING PEPTIDES AND CONSTRUCTS THEREOF” (MARIANA ONCOLOGY INC., priority 2023, published 2025):
Numbered stars: 1 amine (or outer) side, 2 acyl side, 3 side chain; on linkers, the order of the positions; unused ones are H or OH. Bridge positions count the residues as written; N and C are the ends. Square brackets hold non-standard residues; d marks the D form. Side chains are listed from the residue outwards. Peptide text beside a SMILES is read from it. * marks the point of attachment. X2 = O=C(O)CN1CCN(CC(=O)O)CCN(CC(=O)N[C@@H](CCCCN*)C(=O)O)CCN(CC(=O)O)CC1; Ala(piperidin-4-yl) = O=C([C@H](CC1CCN([*:3])CC1)N[*:1])[*:2]; DOTA = O=C(O)CN1CCN(CC(=O)O)CCN(CC(=O)*)CCN(CC(=O)O)CC1; 1Nal = N[C@@H](Cc1cccc2ccccc12)C(=O)O; 2Nal = N[C@@H](Cc1ccc2ccccc2c1)C(=O)O; Phe(2-Me) = Cc1ccccc1C[C@H](N)C(=O)O; mXylylene = c1cc(C[*:1])cc(C[*:2])c1; Trx = NC[C@H]1CC[C@H](C(=O)O)CC1; tBuAla = CC(C)(C)C[C@H](N)C(=O)O; Chg = N[C@H](C(=O)O)C1CCCCC1; αMeP = C[C@@]1(C(=O)O)CCCN1; Dap = NC[C@H](N)C(=O)O; CH2 = C([*:1])[*:2]; Ahx = NCCCCCC(=O)O

biological target: T1, human DLL3 (Homo sapiens, UniProt Q9NYJ7); experiment: Affinity determination by Surface Plasmon Resonance (SPR), Biacore, 1:1 binding model; settings: biotinylated human DLL3 on streptavidin chip, 25° C.; NB = nonbinding
T1 construct: biotin (biotinylated)
T1 sequence (Q9NYJ7 27-618): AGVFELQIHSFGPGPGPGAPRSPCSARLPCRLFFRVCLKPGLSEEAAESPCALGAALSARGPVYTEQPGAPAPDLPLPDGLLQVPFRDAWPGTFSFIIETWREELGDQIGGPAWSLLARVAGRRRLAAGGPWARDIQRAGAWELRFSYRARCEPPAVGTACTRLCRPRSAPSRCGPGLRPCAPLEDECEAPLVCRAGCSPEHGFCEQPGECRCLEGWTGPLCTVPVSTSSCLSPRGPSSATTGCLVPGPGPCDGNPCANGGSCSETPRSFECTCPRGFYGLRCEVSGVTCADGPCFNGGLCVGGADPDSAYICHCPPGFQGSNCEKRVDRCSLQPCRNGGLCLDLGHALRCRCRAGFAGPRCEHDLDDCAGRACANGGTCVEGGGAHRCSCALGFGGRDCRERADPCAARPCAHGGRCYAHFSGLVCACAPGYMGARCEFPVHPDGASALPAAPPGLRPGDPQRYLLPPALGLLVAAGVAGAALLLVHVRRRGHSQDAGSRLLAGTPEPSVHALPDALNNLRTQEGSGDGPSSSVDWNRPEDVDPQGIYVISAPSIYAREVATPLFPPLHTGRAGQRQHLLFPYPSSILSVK
Protocol: Example 3. Binding Affinity of Targeting Moieties Polypeptides to DLL3 Affinity Determination by Surface Plasmon Resonance (SPR)
SPR studies were performed on the compounds disclosed herein using the following protocol. […] Biotinylated target ligand human DLL3 was immobilized on a streptavidin sensor chip. A reference surface was set up for nonspecific binding and refractive index changes. For analysis of the kinetics of interactions, varying concentrations of samples were injected at a flow rate of 100 μL/min using running buffer containing 20 mM phosphate buffer with 2.7 mM KCl, 137 mM NaCl, 0.05% Surfactant P20 and 2% DMSO. Sensorgram curves were fitted with 1:1 binding model, and affinity and kinetic parameters were obtained using Biacore Insight evaluation 4.0. software.

Row | Structure (SMILES) | Kd
1 | CC(=O)N[C@H](C)C(=O)N[C@@H](CO)C(=O)N[C@@](C)(CC(=O)O)C(=O)N[C@H]1C/C=C/C[C@@H](C(=O)N2CCC[C@@]2(C)C(=O)N[C@@H](Cc2ccccc2)C(=O)N[C@@H](CC(=O)O)C(N)=O)NC(=O)[C@H](CC(N)=O)NC(=O)[C@H](Cc2ccc3ccccc3c2)NC(=O)[C@H](Cc2ccc(CNC(=O)CN3CCN(CC(=O)O)CCN(CC(=O)O)CCN(CC(=O)O)CC3)cc2)NC(=O)[C@H](CC(C)(C)C)NC(=O)[C@H](Cc2cccc3ccccc23)NC1=O (single isomer, unassigned) [Cpd #193, Ac-(D-Ala)-S-(aMe-Asp)-AllyG(4)-(1Nal)-(t-Bu-Ala)-[PAF(DOTA)]-(2Nal)-N-AllyG(4)-(aMe-P)-F-D-CONH2] | 0.113 nM
2 | CSCC[C@H](NC(C)=O)C(=O)N[C@@H](CO)C(=O)N[C@@H](CC(=O)O)C(=O)N[C@H]1CSSC[C@@H](C(=O)N2CCC[C@H]2C(=O)N[C@@H](Cc2ccccc2)C(=O)N[C@@H](CC(=O)O)C(N)=O)NC(=O)[C@H](CC(N)=O)NC(=O)[C@H](Cc2c[nH]c3ccccc23)NC(=O)[C@H](CCC(N)=O)NC(=O)[C@H](CC(C)C)NC(=O)[C@H](Cc2c[nH]c3ccccc23)NC1=O [Cpd #1, Ac-M-S-D-C(3)-W-L-Q-W-N-C(3)-P-F-D-CONH2] (Ac-MSDCWLQWNCPFD-NH2; disulfide 4-10) | 11 nM
3 | CSCC[C@H](NC(=O)CCCCCNC(=O)CN1CCN(CC(=O)O)CCN(CC(=O)O)CCN(CC(=O)O)CC1)C(=O)N[C@@H](CO)C(=O)N[C@@H](CC(=O)O)C(=O)N[C@H]1CSSC[C@@H](C(=O)N2CCC[C@H]2C(=O)N[C@@H](Cc2ccccc2)C(=O)N[C@@H](CC(=O)O)C(N)=O)NC(=O)[C@H](CC(N)=O)NC(=O)[C@H](Cc2c[nH]c3ccccc23)NC(=O)[C@H](CCC(N)=O)NC(=O)[C@H](CC(C)C)NC(=O)[C@H](Cc2c[nH]c3ccccc23)NC1=O [Cpd #7, DOTA-Ahx-M-S-D-C(3)-W-L-Q-W-N-C(3)-P-F-D-CONH2] ({DOTA-Ahx}-MSDCWLQWNCPFD-NH2; disulfide 4-10) | 14 nM
4 | CC(=O)N[C@@H](CO)C(=O)N[C@@H](CC(=O)O)C(=O)N[C@H]1CSCSC[C@@H](C(=O)N2CCC[C@H]2C(=O)N[C@@H](Cc2ccccc2)C(=O)N[C@@H](CC(=O)O)C(=O)N[C@H](CCCCNC(=O)CN2CCN(CC(=O)O)CCN(CC(=O)O)CCN(CC(=O)O)CC2)C(N)=O)NC(=O)[C@H](CC(N)=O)NC(=O)[C@H](Cc2c[nH]c3ccccc23)NC(=O)[C@H](CCC(N)=O)NC(=O)[C@H](CC(C)C)NC(=O)[C@H](Cc2c[nH]c3ccccc23)NC1=O [Cpd #66, Ac-S-D-C(1)-W-L-Q-W-N-C(1)-P-F-D-D-Lys(DOTA)-CONH2] (Ac-SDCWLQWNCPFD[dK](DOTA)-NH2; linker 3-9 via CH2) | > 300 nM
5 | CC(=O)N[C@H](C(=O)N[C@@H](CO)C(=O)N[C@@H](CC(=O)O)C(=O)N[C@H]1CSCc2cccc(c2)CSC[C@@H](C(=O)N2CCC[C@@]2(C)C(=O)N[C@@H](Cc2ccccc2)C(=O)N[C@@H](CC(=O)O)C(=O)N[C@H](CCCCNC(=O)CN2CCN(CC(=O)O)CCN(CC(=O)O)CCN(CC(=O)O)CC2)C(N)=O)NC(=O)[C@H](CC(N)=O)NC(=O)[C@H](Cc2c[nH]c3ccccc23)NC(=O)[C@H](CCC(N)=O)NC(=O)[C@H](CC(C)C)NC(=O)[C@H](Cc2cccc3ccccc23)NC1=O)C1CCCCC1 [Cpd #144, Ac-(Chg)-S-D-C(mDBX)-(1Nal)-L-Q-W-N-C(2)-(aMe-P)-F-D-D-Lys(DOTA)-CONH2] (Ac-[Chg]SDC[1Nal]LQWNC[αMeP]FD[dK](DOTA)-NH2; linker 4-10 via mXylylene) | > 30 nM
6 | CNC(=O)[C@@H](CCCCNC(=O)CN1CCN(CC(=O)O)CCN(CC(=O)O)CCN(CC(=O)O)CC1)NC(=O)[C@H](CC(=O)O)NC(=O)[C@H](Cc1ccccc1)NC(=O)[C@]1(C)CCCN1C(=O)[C@@H]1CSSC[C@H](NC(=O)[C@H](CC(=O)O)NC(=O)[C@H](CO)NC(=O)[C@@H](C)NC(C)=O)C(=O)N[C@@H](Cc2cccc3ccccc23)C(=O)N[C@@H](CC(C)(C)C)C(=O)N[C@@H](CCC(N)=O)C(=O)N[C@@H](Cc2ccc3ccccc3c2)C(=O)N[C@@H](CC(N)=O)C(=O)N1 [Cpd #147, Ac-(D-Ala)-S-D-C(3)-(1Nal)-(t-Bu-Ala)-Q-(2Nal)-N-C(3)-(aMe-P)-F -D-[D-Lys(DOTA)]-CONHMe] (Ac-[dA]SDC[1Nal][tBuAla]Q[2Nal]NC[αMeP]FD[dK](DOTA)-NHMe; disulfide 4-10) | 0.13 nM
7 | CC(=O)N[C@H](C)C(=O)N[C@@H](CO)C(=O)N[C@@H](CC(=O)O)C(=O)N[C@H]1CSSC[C@@H](C(=O)N2CCC[C@@]2(C)C(=O)N[C@@H](Cc2ccccc2C)C(=O)N[C@@H](CC(=O)O)C(=O)N[C@H](CCCCNC(=O)CN2CCN(CC(=O)O)CCN(CC(=O)O)CCN(CC(=O)O)CC2)C(=O)O)NC(=O)[C@H](CC(N)=O)NC(=O)[C@H](Cc2ccc3ccccc3c2)NC(=O)[C@H](CCC(N)=O)NC(=O)[C@H](CC(C)(C)C)NC(=O)[C@H](Cc2cccc3ccccc23)NC1=O [Cpd #150, Ac-(D-Ala)-S-D-C(3)-(1Nal)-(t-Bu-Ala)-Q-(2Nal)-N-C(3)-(aMe-P)-(2Me-F)-D-[D-Lys(DOTA)]-COOH] (Ac-[dA]SDC[1Nal][tBuAla]Q[2Nal]NC[αMeP][Phe(2-Me)]D[dK](DOTA)-OH; disulfide 4-10) | 0.13 nM
8 | CC(=O)N[C@H](C)C(=O)N[C@H](CO)C(=O)N[C@@H](CC(=O)O)C(=O)N[C@H]1CSSC[C@@H](C(=O)N2CCC[C@@]2(C)C(=O)N[C@@H](Cc2ccccc2C)C(=O)N[C@@H](CC(=O)O)C(N)=O)NC(=O)[C@H](CC(N)=O)NC(=O)[C@H](Cc2ccc3ccccc3c2)NC(=O)[C@H](CCCCNC(=O)[C@H]2CC[C@H](CNC(=O)CN3CCN(CC(=O)O)CCN(CC(=O)O)CCN(CC(=O)O)CC3)CC2)NC(=O)[C@H](CC(C)(C)C)NC(=O)[C@H](Cc2cccc3ccccc23)NC1=O [Cpd #151, Ac-(D-Ala)-S-D-C(3)-(1Nal)-(t-Bu-Ala)-[L-Lys(Chx-DOTA)]-(2Nal)-N-C(3)-(aMe-P)-(2Me-F)-D-CONH2] (Ac-[dA][dS]DC[1Nal][tBuAla]K([Trx-DOTA])[2Nal]NC[αMeP][Phe(2-Me)]D-NH2; disulfide 4-10) | 0.28 nM
9 | CC(=O)N[C@H](C)C(=O)N[C@@H](CO)C(=O)N[C@@H](CC(=O)O)C(=O)N[C@H]1CSSC[C@@H](C(=O)N2CCC[C@@]2(C)C(=O)N[C@@H](Cc2ccccc2C)C(=O)N[C@@H](CC(=O)O)C(N)=O)NC(=O)[C@H](CC(N)=O)NC(=O)[C@H](Cc2ccc3ccccc3c2)NC(=O)[C@H](CCC(=O)NCCCC[C@H](NC(=O)CN2CCN(CC(=O)O)CCN(CC(=O)O)CCN(CC(=O)O)CC2)C(=O)O)NC(=O)[C@H](CC(C)(C)C)NC(=O)[C@H](Cc2cccc3ccccc23)NC1=O [Cpd #153, Ac-(D-Ala)-S-D-C(3)-(1Nal)-(t-Bu-Ala)-[Glu(εLys(OH)-(DOTA))]-(2Nal)-N-C(3)-(aMe-P)-(2Me-F)-D-CONH2] (Ac-[dA]SDC[1Nal][tBuAla]E(X2)[2Nal]NC[αMeP][Phe(2-Me)]D-NH2; disulfide 4-10) | 0.51 nM
10 | CC(=O)N[C@H](C)C(=O)N[C@@H](CO)C(=O)N[C@@H](CC(=O)O)C(=O)N[C@H]1CSSC[C@@H](C(=O)N2CCC[C@@]2(C)C(=O)N[C@@H](Cc2ccccc2)C(=O)N[C@@H](CC(=O)O)C(N)=O)NC(=O)[C@H](CC(N)=O)NC(=O)[C@H](Cc2ccc3ccccc3c2)NC(=O)[C@H](CC2CCN(C(=O)CN3CCN(CC(=O)O)CCN(CC(=O)O)CCN(CC(=O)O)CC3)CC2)NC(=O)[C@H](CC(C)(C)C)NC(=O)[C@H](Cc2cccc3ccccc23)NC1=O [Cpd #157, Ac-(D-Ala)-S-D-C(3)-(1Nal)-(t-Bu-Ala)-[3-(4-piperidinyl-DOTA)-Ala]-(2Nal)-N-C(3)-(aMe-P)-F -D-CONH2] (Ac-[dA]SDC[1Nal][tBuAla][Ala(piperidin-4-yl)](DOTA)[2Nal]NC[αMeP]FD-NH2; disulfide 4-10) | 0.18 nM
11 | CC(=O)N[C@H](C)C(=O)N[C@@H](CO)C(=O)N[C@@H](CC(=O)O)C(=O)N[C@H]1CCC(=O)NC[C@@H](C(=O)N2CCC[C@@]2(C)C(=O)N[C@@H](Cc2ccccc2C)C(=O)N[C@@H](CC(=O)O)C(=O)N[C@H](CCCCNC(=O)CN2CCN(CC(=O)O)CCN(CC(=O)O)CCN(CC(=O)O)CC2)C(N)=O)NC(=O)[C@H](CC(N)=O)NC(=O)[C@H](Cc2ccc3ccccc3c2)NC(=O)[C@H](CCC(N)=O)NC(=O)[C@H](CC(C)(C)C)NC(=O)[C@H](Cc2cccc3ccccc23)NC1=O [Cpd #160, Ac-(D-Ala)-S-D-Glu(2)-(1Nal)-(t-Bu-Ala)-Q-(2Nal)-N-Dap(2)-(aMe-P)-(2Me-F)-D-D-Lys(DOTA)-CONH2] (Ac-[dA]SDE[1Nal][tBuAla]Q[2Nal]N[Dap][αMeP][Phe(2-Me)]D[dK](DOTA)-NH2; lactam 4-10) | > 300 nM
